The results in this text go back to BindingDB's records for doi:10.1016/j.bmcl.2013.01.049 (Dongguk University-Seoul, 2013).

In the assay the target is T1, Receptor-type tyrosine-protein kinase FLT3 (Homo sapiens, UniProt P36888).
T1 sequence (P36888 whole entry): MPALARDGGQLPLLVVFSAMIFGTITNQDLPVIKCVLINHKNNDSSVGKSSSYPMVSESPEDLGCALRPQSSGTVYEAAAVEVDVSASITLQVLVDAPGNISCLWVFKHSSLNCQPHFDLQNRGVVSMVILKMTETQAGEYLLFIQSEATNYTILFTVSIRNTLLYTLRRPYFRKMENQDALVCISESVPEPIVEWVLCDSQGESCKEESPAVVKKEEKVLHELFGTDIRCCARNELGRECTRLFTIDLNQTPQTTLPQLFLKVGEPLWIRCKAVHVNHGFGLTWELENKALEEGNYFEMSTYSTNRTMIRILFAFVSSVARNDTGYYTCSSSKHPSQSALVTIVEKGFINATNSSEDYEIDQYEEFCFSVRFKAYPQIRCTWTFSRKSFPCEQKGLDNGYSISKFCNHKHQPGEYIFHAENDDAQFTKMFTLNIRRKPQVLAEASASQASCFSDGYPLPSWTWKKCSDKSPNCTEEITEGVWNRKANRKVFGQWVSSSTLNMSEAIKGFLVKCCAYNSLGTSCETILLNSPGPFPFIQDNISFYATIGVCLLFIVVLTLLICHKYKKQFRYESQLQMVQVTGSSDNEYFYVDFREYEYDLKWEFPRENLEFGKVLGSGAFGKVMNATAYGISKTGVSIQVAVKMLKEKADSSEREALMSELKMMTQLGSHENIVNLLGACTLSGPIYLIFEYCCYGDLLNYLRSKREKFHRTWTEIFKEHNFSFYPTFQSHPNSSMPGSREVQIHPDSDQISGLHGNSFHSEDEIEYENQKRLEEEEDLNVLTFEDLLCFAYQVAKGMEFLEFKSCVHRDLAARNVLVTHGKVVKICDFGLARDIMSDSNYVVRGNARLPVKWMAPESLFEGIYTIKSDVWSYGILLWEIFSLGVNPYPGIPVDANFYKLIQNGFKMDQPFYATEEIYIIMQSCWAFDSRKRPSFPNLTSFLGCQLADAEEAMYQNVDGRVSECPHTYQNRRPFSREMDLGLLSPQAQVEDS
The assay is described as follows: Inhibition of recombinant FLT3 (unknown origin) by TR-FRET assay. (In general: Time-resolved FRET reads energy transfer from a long-lived donor to a nearby acceptor.)

Each structure is given as a SMILES string. Bounds are passed on as bounds.

For `O=c1cc(O)cc2oc(-c3ccc(O)c(O)c3)c(O[C@@H]3O[C@H](CO)[C@H](O)[C@H](O)[C@H]3O)c(O)c1-2` [2-(3,4-Dihydroxy-phenyl)-5,7-dihydroxy-3-((2S,4R,5R)-3,4,5-trihydroxy-6-hydroxymethyl-tetrahydro-pyran-2-yloxy)-chromen-4-one], the 50% inhibitory concentration (IC50) is greater than 10 µM. The value for `O=c1cc(O)cc2oc(-c3ccc(O)c(O)c3)c(O[C@@H]3O[C@H](CO)[C@@H](O)[C@H](O)[C@H]3O)c(O)c1-2` [Quercetin 3-O-beta-D-glucoside] was greater than 10 µM; that for `O=c1cc(O)cc2oc(-c3ccc(O)c(O)c3)c(OC3O[C@H](CO)[C@@H](O)[C@H](O)[C@@H]3O)c(O)c1-2` (stereo partly drawn) was greater than 10 µM.

By IC50 is commonly meant the concentration that inhibits the measured activity by half.
